Measured values as given in patent publication US20240398773A1, “COMPOSITIONS COMPRISING OTESECONAZOLE” (Mycovia Pharmaceuticals, Inc., priority 2021, published 2024).
Read-outs that look alike come from different tables or passages of the source.

How the values were obtained:
[1] = Phase 2a acute VVC study, safety; format: in vivo, human; details: administered for 3 days
Procedure: (§1) Oteseconazole has previously been evaluated in a Phase 2a multi-center, randomized, double-blind, active-controlled, parallel-group, dose-ranging study in patients with moderate-to-severe acute VVC. A total of 55 subjects with moderate-to-severe acute VVC (severity score ≥6 and a positive fungal KOH test) participated in the study across 4 dose groups: 1) oteseconazole 300 mg qd for 3 days: 2) 600 mg qd for 3 days: 3) 600 mg bid for 3 days; or 4) a single dose of fluconazole 150 mg followed by matching placebo. […] No safety signals of clinical concern were observed from the safety assessments.

[2] = Study CL-007 DDI and PKE cohorts, plasma PK; format: in vivo; design: AUC(0-t) / AUC(0-inf): concentration or dose not given beside the values; details: human; for AUC(0-t): read-out: AUC0-24
Procedure: The median Tmax was 4.0 hours on Day 3 and 6.0 hours on Day 16. […] The increase in oteseconazole concentrations after 14 days of daily dosing was expected based on the long half-life of oteseconazole and are a consequence of accumulation and not of concomitant administration of midazolam.
The geometric mean AUC0-24 was 26120 h*ng/ml and the geometric mean AUC0-∞ was 57290 h*ng/mL. These values were consistent with the oteseconazole plasma PK parameters calculated on Day 3 in the DDI cohort.

Candida species = assay: Phase 2a dose-ranging study in moderate-to-severe acute VVC, effective therapeutic cure; format: in vivo, human; details: Per Protocol population
Procedure: as §1
The efficacy of oteseconazole in the treatment of moderate-to-severe acute VVC was evaluated at the TOC visit in the Per Protocol population at the Day 28 test of cure (TOC) visit was, 87%, 86%, 86%, and 75% of subjects receiving the low, mid-, or high-dose oteseconazole or comparator arm of fluconazole, respectively, achieved an effective therapeutic cure (defined as having a total clinical signs and symptoms severity score of ≤1 and a negative culture for Candida species) in the Per Protocol population

Study CL-017 plasma PK = format: in vivo, human; details: for Tmax: Median
Procedure: Oteseconazole mean (SD) plasma concentration during the intense PK sampling period on Day 1 peaked at 4 hours postdose (1425.8 [672.05] μg/L) and decreased slightly by 8 hours postdose (1301.06 [782.76] μg/L). On Day 2, mean (SD) oteseconazole plasma concentrations were 697.7 (264.40) μg/L at predose, then increased to 1895.0 (640.00) μg/L at 4 hours postdose, and decreased to 1555.6 (392.68) μg/L by 8 hours postdose (FIG. 6).
Over the period of Day 14 to Week 50, oteseconazole plasma concentrations were measured at Day 14, Week 14 (end of dosing), and Week 50 (end of follow-up period). Oteseconazole mean (SD) plasma concentration increased from 1396.9 (709.00) μg/L at Day 14 to 2679.3 (1318.94) μg/L at Week 14 before decreasing to 873.4 (534.49) μg/L at Week 50 (FIG. 7).
Median Tmax occurred at 4.00 hours on Day 2; however, Tmax occurred in a narrower range (2.00 to 8.00 hours) compared with that observed on Day 1. The AUC0-8 was 7570 h*μg/L and 11700 h*μg/L, for Day 1 and Day 2, respectively (Table 17).

Study CL-004 plasma PK = format: in vivo, human; details: for concentration at 24 h / concentration at 168 day / half-life / Tmax / Cmax / AUC(0-t): human, plasma; for concentration at 24 h: read-out: predicted minimum concentration (Cmin) at 24 hours after the final Day 3 dose; for half-life: read-out: median t1/2 (converted); for Tmax: read-out: median Tmax; for AUC(0-t): read-out: AUC0-8
Procedure: The ty, values were estimated on the basis of blood sampling that was carried out between approximately 7 and 168 days after administration of the first dose. […] The oteseconazole concentrations on Day 168 remained measurable (127, 409, and 1300 ng/mL for the 300 mg QD, 600 mg QD, and 600 mg BID treatment groups, respectively) and remained at or above therapeutic concentrations for the 600 mg QD and 600 mg BID treatment groups.
Based on the calculated Cmin values, only about 50% of the target was met for the 300 mg QD and 600 mg QD treatment groups, with the 600 mg BID treatment group reaching the target anticipated for the 600 mg QD group.

Tinea Pedis = assay: Study CL-003 therapeutic cure of tinea pedis; format: in vivo, human
Excerpt: Even though the target concentrations were not reached for either dose group in this study, oteseconazole was efficacious in treating TP.

[3] = DDI Cohort, Day 3, geometric mean
[4] = DDI Cohort, Day 16, geometric mean
[5] = PKE Cohort, Day 1, geometric mean
[6] = 300 mg, 300 mg QD treatment group
[7] = 600 mg, 600 mg BID treatment group
[8] = 600 mg, 600 mg QD treatment group

O[C@@](Cn1cnnn1)(c1ccc(F)cc1F)C(F)(F)c1ccc(-c2ccc(OCC(F)(F)F)cc2)cn1 [Oteseconazole, oteseconazole]
serious adverse events [1]: no serious adverse events
safety and tolerability ([1]; 300 mg qd to 600 mg bid): safe and well tolerated
AUC(0-inf) [2, 3]: 49.4 µg·h/mL
Cmax [2, 3]: 1910 ng/mL
AUC(0-t) [2, 3]: 24.6 µg·h/mL
Tmax ([2]; DDI Cohort, Day 3, median): 4 h
AUC(0-inf) [2, 4]: 4880 µg·h/mL
Cmax [2, 4]: 11600 ng/mL
AUC(0-t) [2, 4]: 243 µg·h/mL
Tmax ([2]; DDI Cohort, Day 16, median): 6 h
AUC(0-inf) [2, 5]: 57.3 µg·h/mL
Cmax [2, 5]: 1900 ng/mL
AUC(0-t) [2, 5]: 26.1 µg·h/mL
Tmax ([2]; PKE Cohort, Day 1, median): 6 h
subjects achieving effective therapeutic cure at Day 28 TOC visit (Candida species; high dose, oteseconazole 600 mg bid for 3 days): 86%
subjects achieving effective therapeutic cure at Day 28 TOC visit (Candida species; low dose, oteseconazole 300 mg qd for 3 days): 87%
subjects achieving effective therapeutic cure at Day 28 TOC visit (Candida species; mid dose, oteseconazole 600 mg qd for 3 days): 86%
Clast (Study CL-017 plasma PK; 3 × 150 mg (450 mg), Day 2, Geometric Mean): 1510 ng/mL
AUC(0-t) (Study CL-017 plasma PK; human, plasma, oral, 450 mg, 3 × 150 mg (450 mg), Day 2, Geometric Mean, read-out: AUC0-8): 11.7 µg·h/mL
concentration at 4 h (Study CL-017 plasma PK; human, plasma, oral, 450 mg, Day 2, 4 hours postdose, read-out: mean (SD) plasma concentration): 1900 ng/mL
concentration at 8 h (Study CL-017 plasma PK; human, plasma, oral, 450 mg, Day 2, 8 hours postdose, read-out: mean (SD) plasma concentration): 1560 ng/mL
AUC(0-t) (Study CL-017 plasma PK; human, plasma, oral, 450 mg, Day 2, as given in text, read-out: AUC0-8): 11.7 µg·h/mL
AUC(0-t) (Study CL-017 plasma PK; human, plasma, oral, 600 mg, 600 mg dose on Day 1, as given in text, read-out: AUC0-24): 20.6 µg·h/mL
AUC(0-t) (Study CL-017 plasma PK; human, plasma, oral, 600 mg, 4 × 150 mg (600 mg), Day 1, Geometric Mean, N 8, read-out: AUC0-24): 20.6 µg·h/mL
AUC(0-t) (Study CL-017 plasma PK; human, plasma, oral, 600 mg, 4 × 150 mg (600 mg), Day 1, Geometric Mean, read-out: AUC0-8): 7.57 µg·h/mL
concentration at 24 h (Study CL-017 plasma PK; human, plasma, oral, 600 mg, 4 × 150 mg (600 mg), Day 1, Geometric Mean, read-out: Clast): 651 ng/mL
concentration at 24 h (Study CL-017 plasma PK; human, plasma, oral, 600 mg, 24 hours after 600 mg Day 1 dose (predose Day 2), read-out: plasma concentrations, range across subjects): 354 to 1150 ng/mL
concentration at 4 h (Study CL-017 plasma PK; human, plasma, oral, 600 mg, Day 1, 4 hours postdose, read-out: mean (SD) plasma concentration): 1430 ng/mL
concentration at 8 h (Study CL-017 plasma PK; human, plasma, oral, 600 mg, Day 1, 8 hours postdose, read-out: mean (SD) plasma concentration): 1300 ng/mL
AUC(0-t) (Study CL-017 plasma PK; human, plasma, oral, 600 mg, Day 1, as given in text, read-out: AUC0-8): 7.57 µg·h/mL
concentration at 24 h (Study CL-017 plasma PK; human, plasma, oral, 600 mg, Day 2, predose, read-out: mean (SD) plasma concentration): 698 ng/mL
concentration at 14 day (Study CL-017 plasma PK; human, plasma, oral, Day 14, read-out: mean (SD) plasma concentration): 1400 ng/mL
concentration at 14 week (Study CL-017 plasma PK; human, plasma, oral, Week 14 (end of dosing), read-out: mean (SD) plasma concentration): 2680 ng/mL
concentration at 50 week (Study CL-017 plasma PK; human, plasma, oral, Week 50 (end of follow-up period), read-out: mean (SD) plasma concentration): 873 ng/mL
Cmax (Study CL-017 plasma PK; human, plasma, oral, 3 × 150 mg (450 mg), Day 2, Geometric Mean): 2010 ng/mL
Tmax (Study CL-017 plasma PK; human, plasma, oral, 3 × 150 mg (450 mg), Day 2): 4 h
Cmax (Study CL-017 plasma PK; human, plasma, oral, 4 × 150 mg (600 mg), Day 1, Geometric Mean): 1620 ng/mL
Tmax (Study CL-017 plasma PK; human, plasma, oral, 4 × 150 mg (600 mg), Day 1): 4.01 h
share of target Cmin met (Study CL-004 plasma PK; 300 mg QD and 600 mg QD treatment groups): about 50%
concentration at 24 h (Study CL-004 plasma PK; 300 mg, 300 mg QD dose group): 705 ng/mL
concentration at 168 day (Study CL-004 plasma PK; [6]): 127 ng/mL
half-life (Study CL-004 plasma PK; [6]): 75.9 days
concentration at 24 h (Study CL-004 plasma PK; 600 mg, 600 mg BID dose group): 2830 ng/mL
concentration at 168 day (Study CL-004 plasma PK; [7]): 1300 ng/mL
half-life (Study CL-004 plasma PK; [7]): 160 days
concentration at 24 h (Study CL-004 plasma PK; 600 mg, 600 mg QD dose group): 1000 ng/mL
concentration at 168 day (Study CL-004 plasma PK; [8]): 409 ng/mL
half-life (Study CL-004 plasma PK; [8]): 133 days
Tmax (Study CL-004 plasma PK; 300 mg dose): 4 h
Tmax (Study CL-004 plasma PK; 600 mg dose): 5.5 h
Cmax (Study CL-004 plasma PK; Day 1, 300 mg dose): 407 ng/mL
AUC(0-t) (Study CL-004 plasma PK; Day 1, 300 mg dose): 1.87 µg·h/mL
Cmax (Study CL-004 plasma PK; Day 1, 600 mg dose): 968 ng/mL
AUC(0-t) (Study CL-004 plasma PK; Day 1, 600 mg dose): 4.23 µg·h/mL
therapeutic cure (Tinea Pedis; high dose group): 21.4%
therapeutic cure (Tinea Pedis; low dose group): 16.7%
therapeutic cure (Tinea Pedis; mid dose group): 8.3%
